Patent publication US7880007B2, “Bicyclic substituted phenyl piperidine modulators of muscarinic receptors” (Vertex Pharmaceuticals Incorporated, priority 2004, dated 2011)

Tests used:
Assay type in all cases: cell-based
[1] = target: T1, M4 muscarinic receptor (Homo sapiens, UniProt P08173); assay: Functional mobilization of intracellular calcium (FLIPR), M4-CHO cells; conditions: for Emax: 100% efficacy = maximum response obtained with the Carbachol control; for M4 Activity: M4-CHO cells, calcium mobilization (FLIPR)
T1 construct: expressed in transfected cells; host or cells: CHO (M4-CHO)
T1 sequence (P08173 1-479): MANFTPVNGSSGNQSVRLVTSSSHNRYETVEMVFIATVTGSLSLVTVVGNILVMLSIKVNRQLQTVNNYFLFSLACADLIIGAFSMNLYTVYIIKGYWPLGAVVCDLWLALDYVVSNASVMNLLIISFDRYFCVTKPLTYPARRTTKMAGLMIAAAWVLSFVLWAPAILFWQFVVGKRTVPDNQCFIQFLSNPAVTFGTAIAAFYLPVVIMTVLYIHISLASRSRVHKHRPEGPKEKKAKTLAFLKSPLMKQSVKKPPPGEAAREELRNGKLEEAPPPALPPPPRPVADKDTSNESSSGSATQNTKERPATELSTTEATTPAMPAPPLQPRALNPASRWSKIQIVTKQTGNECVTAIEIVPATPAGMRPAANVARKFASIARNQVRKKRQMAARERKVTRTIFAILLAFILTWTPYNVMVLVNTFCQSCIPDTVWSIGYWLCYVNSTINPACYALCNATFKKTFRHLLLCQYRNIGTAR
Procedure, shortened: (§1)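 CHO cells expressing human M1–M4 receptors loaded with Fluo-3 AM or Calcium 3 dye (1 mM probenecid, pH 7.4); 0.5% DMSO final. Agonist mode: compound added directly; antagonist mode: 15 min pre-incubation or co-application, then carbachol at EC80. Fluorescence read 60 s on FLIPR; efficacy relative to carbachol maximum.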

[2] = target: T2, M2 muscarinic receptor (Homo sapiens, UniProt P08172); assay: Functional mobilization of intracellular calcium (FLIPR), M2-CHO cells; conditions: for Emax: 100% efficacy = maximum response obtained with the Carbachol control; for M2 Activity: M2-CHO cells, calcium mobilization (FLIPR)
T2 construct: expressed in transfected cells; host or cells: CHO (M2-CHO)
T2 sequence (P08172 1-466): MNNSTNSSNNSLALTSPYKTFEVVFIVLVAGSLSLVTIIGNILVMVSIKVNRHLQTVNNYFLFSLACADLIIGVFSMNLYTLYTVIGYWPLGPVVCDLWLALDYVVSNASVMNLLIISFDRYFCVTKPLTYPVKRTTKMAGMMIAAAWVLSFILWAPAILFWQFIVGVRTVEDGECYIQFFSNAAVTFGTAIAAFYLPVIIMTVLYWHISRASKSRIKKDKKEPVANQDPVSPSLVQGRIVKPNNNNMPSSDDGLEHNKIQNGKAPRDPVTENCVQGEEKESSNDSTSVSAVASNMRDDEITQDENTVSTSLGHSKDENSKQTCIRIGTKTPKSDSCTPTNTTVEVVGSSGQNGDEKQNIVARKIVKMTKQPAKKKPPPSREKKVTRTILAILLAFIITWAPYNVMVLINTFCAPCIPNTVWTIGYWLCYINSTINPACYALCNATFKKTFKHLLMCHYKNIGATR
Procedure, shortened: as §1

[3] = target: T3, M1 muscarinic receptor (Homo sapiens, UniProt P11229); assay: Functional mobilization of intracellular calcium (FLIPR), M1-CHO cells; conditions: for Emax: 100% efficacy = maximum response obtained with the Carbachol control; for M1 Activity: M1-CHO cells, calcium mobilization (FLIPR)
T3 construct: expressed in transfected cells; host or cells: CHO (M1-CHO)
T3 sequence (P11229 1-460): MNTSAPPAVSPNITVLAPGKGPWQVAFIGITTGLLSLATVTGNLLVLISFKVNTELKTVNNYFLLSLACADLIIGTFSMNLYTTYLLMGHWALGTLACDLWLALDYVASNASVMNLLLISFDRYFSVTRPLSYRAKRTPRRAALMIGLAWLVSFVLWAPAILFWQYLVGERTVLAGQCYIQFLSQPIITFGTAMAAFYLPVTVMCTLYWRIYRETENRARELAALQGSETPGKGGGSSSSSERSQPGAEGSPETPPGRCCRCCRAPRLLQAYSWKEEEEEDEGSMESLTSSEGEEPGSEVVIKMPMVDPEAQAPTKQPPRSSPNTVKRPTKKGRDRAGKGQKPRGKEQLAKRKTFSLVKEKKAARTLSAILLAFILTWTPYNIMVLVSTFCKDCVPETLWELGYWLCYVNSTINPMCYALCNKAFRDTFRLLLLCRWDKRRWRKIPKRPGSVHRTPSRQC
Procedure, shortened: as §1

[4] = target: T4, M3 muscarinic receptor (Homo sapiens, UniProt P20309); assay: Functional mobilization of intracellular calcium (FLIPR), M3-CHO cells; conditions: for Emax: 100% efficacy = maximum response obtained with the Carbachol control; for M3 Activity: M3-CHO cells, calcium mobilization (FLIPR)
T4 construct: expressed in transfected cells; host or cells: CHO (M3-CHO)
Procedure, shortened: as §1

T4 sequence (P20309 whole entry): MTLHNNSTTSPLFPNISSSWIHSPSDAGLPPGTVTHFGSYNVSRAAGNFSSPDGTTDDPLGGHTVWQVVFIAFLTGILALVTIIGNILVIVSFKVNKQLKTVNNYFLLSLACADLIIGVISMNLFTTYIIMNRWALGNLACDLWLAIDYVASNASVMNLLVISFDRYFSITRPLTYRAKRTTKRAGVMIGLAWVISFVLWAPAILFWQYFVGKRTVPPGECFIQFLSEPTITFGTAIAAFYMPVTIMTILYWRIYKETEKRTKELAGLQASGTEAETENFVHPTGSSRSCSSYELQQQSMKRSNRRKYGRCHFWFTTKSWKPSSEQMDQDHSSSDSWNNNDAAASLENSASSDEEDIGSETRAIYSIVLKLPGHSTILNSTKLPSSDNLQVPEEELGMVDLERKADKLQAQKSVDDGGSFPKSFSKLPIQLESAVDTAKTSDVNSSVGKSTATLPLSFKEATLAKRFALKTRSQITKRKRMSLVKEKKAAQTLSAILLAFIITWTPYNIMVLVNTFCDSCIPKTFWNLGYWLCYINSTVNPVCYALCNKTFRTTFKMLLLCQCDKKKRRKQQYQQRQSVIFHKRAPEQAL

Row | Structure (SMILES) | Emax [1] | M4 Activity [1] | Emax [2] | M2 Activity [2] | Emax [3] | M1 Activity [3] | Emax [4] | M3 Activity [4]
1 | COc1ccc(Cl)cc1C1CCN(C2CC3CCC(C3)C2)CC1 (stereo not drawn) [Compound 27] | 25 to 100% | +++ (activity was measured to be less than 1.0 μM) | 25 to 100% | ++ (activity was measured to be from 1.0 μM to 5.0 μM) | 25 to 100% | ++ (activity was measured to be from 1.0 μM to 5.0 μM) | < 25% | + (activity was measured to be greater than 5.0 μM)
2 | COc1ccccc1C1(O)CCN(CC2CC3C=CC2C3)CC1 (stereo not drawn) [Compound 29] | 25 to 100% | ++ (activity was measured to be from 1.0 μM to 5.0 μM) | < 25% | + (activity was measured to be greater than 5.0 μM) | 25 to 100% | + (activity was measured to be greater than 5.0 μM) | – | + (activity was measured to be greater than 5.0 μM)
3 | CCOC(=O)N1CCC(N2CCC(O)(c3cc(Cl)ccc3OC)CC2)CC1 [Compound 31] | 25 to 100% | +++ (activity was measured to be less than 1.0 μM) | < 25% | + (activity was measured to be greater than 5.0 μM) | 25 to 100% | ++ (activity was measured to be from 1.0 μM to 5.0 μM) | < 25% | + (activity was measured to be greater than 5.0 μM)
4 | FC(F)(F)c1ccccc1C1CCN(C2C[C@H]3CC[C@H]2C3)CC1 (stereo partly drawn) [Compound 32] | 25 to 100% | – | < 25% | – | 25 to 100% | – | < 25% | –
5 | CCOC(=O)N1C2CCC1CC(N1CCC(c3cc(-c4ccc(C(C)(C)C#N)cc4)ccc3OC)CC1)C2 (stereo not drawn) [Compound 33] | 25 to 100% | ++ (activity was measured to be from 1.0 μM to 5.0 μM) | < 25% | + (activity was measured to be greater than 5.0 μM) | 25 to 100% | ++ (activity was measured to be from 1.0 μM to 5.0 μM) | < 25% | + (activity was measured to be greater than 5.0 μM)
6 | COc1ccccc1C1CCN(C2CC(C)CC(C)C2)CC1 (stereo not drawn) [Compound 34] | < 25% | + (activity was measured to be greater than 5.0 μM) | < 25% | + (activity was measured to be greater than 5.0 μM) | < 25% | + (activity was measured to be greater than 5.0 μM) | < 25% | + (activity was measured to be greater than 5.0 μM)
7 | COc1cc(F)ccc1C1CCN([C@@H]2C[C@H]3CC[C@H]2C3)CC1 [Compound 35] | 25 to 100% | +++ (activity was measured to be less than 1.0 μM) | < 25% | + (activity was measured to be greater than 5.0 μM) | 25 to 100% | + (activity was measured to be greater than 5.0 μM) | < 25% | + (activity was measured to be greater than 5.0 μM)
8 | CNC(=O)c1ccc(-c2ccc(OC)c(C3CCN(C4CCCCC4)CC3)c2)cc1 [Compound 36] | 25 to 100% | ++ (activity was measured to be from 1.0 μM to 5.0 μM) | < 25% | + (activity was measured to be greater than 5.0 μM) | < 25% | + (activity was measured to be greater than 5.0 μM) | < 25% | + (activity was measured to be greater than 5.0 μM)
9 | COc1ccccc1C1CC2CCC(C1)N2C1CCOCC1 (stereo not drawn) [Compound 37] | < 25% | + (activity was measured to be greater than 5.0 μM) | < 25% | + (activity was measured to be greater than 5.0 μM) | < 25% | + (activity was measured to be greater than 5.0 μM) | < 25% | + (activity was measured to be greater than 5.0 μM)
10 | COc1ccccc1C1CCN(C2CCC[C@@H](C)C2)CC1 (stereo partly drawn) [Compound 38] | 25 to 100% | +++ (activity was measured to be less than 1.0 μM) | < 25% | + (activity was measured to be greater than 5.0 μM) | < 25% | + (activity was measured to be greater than 5.0 μM) | < 25% | + (activity was measured to be greater than 5.0 μM)
11 | CCOC(=O)N1CCC(CN2CCC(c3cc(F)ccc3OC)CC2)CC1 [Compound 39] | 25 to 100% | +++ (activity was measured to be less than 1.0 μM) | 25 to 100% | +++ (activity was measured to be less than 1.0 μM) | 25 to 100% | +++ (activity was measured to be less than 1.0 μM) | < 25% | + (activity was measured to be greater than 5.0 μM)
12 | COc1ccc(F)cc1C1(F)CCN(C2CC3CCC(C3)C2)CC1 (stereo not drawn) [Compound 40] | 25 to 100% | +++ (activity was measured to be less than 1.0 μM) | 25 to 100% | + (activity was measured to be greater than 5.0 μM) | 25 to 100% | ++ (activity was measured to be from 1.0 μM to 5.0 μM) | < 25% | + (activity was measured to be greater than 5.0 μM)
13 | OC1(c2ccc(F)cc2F)CCN(C2C[C@H]3CC[C@H]2C3)CC1 (stereo partly drawn) [Compound 41] | < 25% | + (activity was measured to be greater than 5.0 μM) | < 25% | + (activity was measured to be greater than 5.0 μM) | < 25% | + (activity was measured to be greater than 5.0 μM) | < 25% | + (activity was measured to be greater than 5.0 μM)
14 | CCOC(=O)C(C)(C)Oc1ccccc1C1CCN([C@H]2C[C@H]3CC[C@H]2C3)CC1 [Compound 42] | < 25% | ++ (activity was measured to be from 1.0 μM to 5.0 μM) | < 25% | + (activity was measured to be greater than 5.0 μM) | < 25% | + (activity was measured to be greater than 5.0 μM) | < 25% | + (activity was measured to be greater than 5.0 μM)
15 | CCOC(=O)N1CCC(N2CCC(c3cc(-c4ccc(S(C)(=O)=O)cc4)ccc3OC)CC2)CC1 [Compound 43] | 25 to 100% | +++ (activity was measured to be less than 1.0 μM) | 25 to 100% | +++ (activity was measured to be less than 1.0 μM) | > 100% | +++ (activity was measured to be less than 1.0 μM) | 25 to 100% | + (activity was measured to be greater than 5.0 μM)
16 | COc1ccc(Cl)cc1C1(F)CCN(C[C@@H]2C[C@H]3C=C[C@H]2C3)CC1 [Compound 44] | 25 to 100% | ++ (activity was measured to be from 1.0 μM to 5.0 μM) | 25 to 100% | + (activity was measured to be greater than 5.0 μM) | 25 to 100% | + (activity was measured to be greater than 5.0 μM) | < 25% | + (activity was measured to be greater than 5.0 μM)
